Entries after “also recorded” stand apart in the source; their conditions may differ. Like-named read-outs stand apart in the source and are kept apart here.
Experiments:
[1] = measured or estimated in plasma following human exposure, cited from earlier work
electric eel AChE = conditions: cited from earlier work
[2] = biological target: T1, Electrophorus electricus AChE (Electrophorus electricus, UniProt O42275); assay: AChE inhibition, electric eel enzyme (Ellman method); format: biochemical; conditions: for AChE inhibition (in words), electric eel: concentration–response curves
T1 construct: purchased Sigma-Aldrich C2888
T1 sequence (O42275 24-633): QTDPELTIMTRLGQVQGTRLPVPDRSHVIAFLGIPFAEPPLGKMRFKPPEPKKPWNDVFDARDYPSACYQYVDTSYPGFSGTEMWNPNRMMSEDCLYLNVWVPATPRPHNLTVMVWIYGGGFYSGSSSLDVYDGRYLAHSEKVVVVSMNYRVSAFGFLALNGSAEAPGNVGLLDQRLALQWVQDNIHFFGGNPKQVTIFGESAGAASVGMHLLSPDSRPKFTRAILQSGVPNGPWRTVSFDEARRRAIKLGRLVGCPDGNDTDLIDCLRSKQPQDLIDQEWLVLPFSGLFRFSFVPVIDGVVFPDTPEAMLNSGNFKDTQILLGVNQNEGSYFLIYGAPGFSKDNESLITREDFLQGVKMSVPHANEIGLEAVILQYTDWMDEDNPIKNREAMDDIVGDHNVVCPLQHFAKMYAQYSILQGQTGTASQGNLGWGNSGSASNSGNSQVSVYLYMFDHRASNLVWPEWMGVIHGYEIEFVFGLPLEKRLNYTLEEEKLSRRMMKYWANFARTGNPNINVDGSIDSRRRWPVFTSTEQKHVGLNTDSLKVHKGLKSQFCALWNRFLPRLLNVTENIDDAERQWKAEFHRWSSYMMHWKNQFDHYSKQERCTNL
Method: (§1) A 1.3 mM DTNB buffer and a 6 mM acetylthiocholine buffer were prepared in the 50 mM sodium phosphate buffer, a 3 mM ethopropazine buffer was prepared in sterile water and all were stored in aliquots at − 20 °C. A 600 µM ethopropazine buffer was prepared just before use in sodium phosphate buffer.
(§2) Stock solutions were diluted in methanol to create a dosing series and also stored at − 20 °C. These series were 100× diluted in sodium phosphate buffer to get 1% methanol solutions, resulting in a final concentration of 0.1% methanol in the wells.
AChE from Electrophorus electricus (electric eel) and freshly drawn (maximum one-day-old), venous EDTA whole blood samples from healthy human donors were used. […] Following incubation for 30 min at room temperature, electric eel AChE was used directly in the enzyme activity assay (see “Enzyme activity assay”). For human blood AChE, 50 µL of the blood was added to a new 48-wells plate and 950 µL Triton buffer was added to these wells (20× dilution).
Briefly, 20 µL of electric eel AChE or 20 µL of Triton-diluted blood (either exposed or unexposed) and 20 µL ethopropazine were added to 460 µL of DTNB buffer in a 48-wells plate. […] Blank wells contained only DTNB buffer and unexposed enzyme/blood to correct for any background absorbance. To these wells, 100 µL sodium phosphate buffer was added instead of acetylthiocholine after incubation. The final concentration of electric eel AChE was 4 mU/well.
All in vitro data were analysed in GraphPad Prism (version 8.4) and are expressed as mean ± standard deviation (SD). For data analysis, vehicle control (0.1% methanol) was set at 100% for both human and electric eel AChE. For human blood, the technical replicates were averaged to perform statistical tests. […] The electric eel AChE data consisted of 3 technical replicates per experiment and 3–4 independent biological replicates.

[3] = biological target: human AChE (recombinant enzyme); conditions: source: recombinant enzyme; ref Li et al. ([2019]); cited from earlier work
human blood AChE = biological target: T2, human blood AChE (Homo sapiens, UniProt P22303); assay: AChE inhibition in human donor whole blood (Ellman method); format: biochemical; conditions: for AChE inhibition (in words), human blood: concentration–response curves
T2 construct: 90 µL undiluted blood in a 48-wells plate; from tissue; host or cells: venous EDTA whole blood from healthy human donors, lysed and diluted in Triton X-100 buffer
T2 sequence (P22303 32-617 isoform P22303-2 limits assumed): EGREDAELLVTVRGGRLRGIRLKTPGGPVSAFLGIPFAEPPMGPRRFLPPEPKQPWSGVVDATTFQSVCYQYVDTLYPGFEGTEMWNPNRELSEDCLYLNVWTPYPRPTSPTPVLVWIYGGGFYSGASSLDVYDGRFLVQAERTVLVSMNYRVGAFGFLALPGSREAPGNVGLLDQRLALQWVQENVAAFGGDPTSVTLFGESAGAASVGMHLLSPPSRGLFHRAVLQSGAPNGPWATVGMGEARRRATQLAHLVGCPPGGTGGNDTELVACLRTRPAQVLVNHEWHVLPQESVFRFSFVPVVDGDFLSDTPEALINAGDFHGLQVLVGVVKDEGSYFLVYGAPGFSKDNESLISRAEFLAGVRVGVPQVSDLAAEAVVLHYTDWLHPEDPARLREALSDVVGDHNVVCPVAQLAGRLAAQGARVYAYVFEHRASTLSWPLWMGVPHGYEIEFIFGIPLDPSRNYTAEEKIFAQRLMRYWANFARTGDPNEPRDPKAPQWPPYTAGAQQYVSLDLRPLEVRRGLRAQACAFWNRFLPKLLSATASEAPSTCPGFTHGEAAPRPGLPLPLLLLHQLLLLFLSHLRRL
Method: as §1, §2
AChE from Electrophorus electricus (electric eel) and freshly drawn (maximum one-day-old), venous EDTA whole blood samples from healthy human donors were used. […] For human blood AChE, 50 µL of the blood was added to a new 48-wells plate and 950 µL Triton buffer was added to these wells (20× dilution).
Briefly, 20 µL of electric eel AChE or 20 µL of Triton-diluted blood (either exposed or unexposed) and 20 µL ethopropazine were added to 460 µL of DTNB buffer in a 48-wells plate. […] Blank wells contained only DTNB buffer and unexposed enzyme/blood to correct for any background absorbance. To these wells, 100 µL sodium phosphate buffer was added instead of acetylthiocholine after incubation.
Unexposed, diluted blood (100 µL) was added to a 96-wells plate and 100 µL transformation agent (20 mg potassium ferricyanide, 5 mg potassium cyanide, 100 mg sodium bicarbonate and 50 µL Triton X-100 in 100 mL water) was added. […] Blank wells contained transformation reagent and buffer to correct for any background absorbance.
All in vitro data were analysed in GraphPad Prism (version 8.4) and are expressed as mean ± standard deviation (SD). For data analysis, vehicle control (0.1% methanol) was set at 100% for both human and electric eel AChE. For human blood, the technical replicates were averaged to perform statistical tests. Unpaired t tests were used to test for differences between men and women and a one-way ANOVA followed by a post-hoc Tukey test was used to compare data between different age groups (group 1: ≥ 60 years; group 2: 31–60 years; group 3: ≤ 30 years).

[4] = tested on: human AChE (red blood cells); conditions: source: red blood cells; ref Ajilore et al. [2018]; cited from earlier work
human AChE (blood) = conditions: source: blood; ref Das et al. ([2006]); cited from earlier work
[5] = IC50 Human, whole blood, average of 20 donors

## CCOP(=S)(OCC)Oc1cc(C)nc(C(C)C)n1 [DZN, diazinon]
[1]; ref Buratti et al. ([2003])
  In vivo concentration: ≤ 10 µM
Electric eel AChE; ref Assis et al. ([2012])
  IC50: 0.3 µM
Electric eel AChE; ref Čolović et al. ([2011])
  IC50: > 200 µM
[2]
  IC50: > 8.5 µM
  AChE inhibition (in words), electric eel: do not show any AChE inhibition; also recorded: did not inhibit AChE
[2]; listed as diazinon
  AChE inhibition (in words), electric eel: did not show inhibition
[3]
  IC50: 38 µM
Human blood AChE; [5]
  IC50: > 10 µM
Human blood AChE
  AChE inhibition (in words), human blood: do not inhibit AChE activity; also recorded: do not show any AChE inhibition; also recorded: did not inhibit AChE
Human blood AChE; listed as diazinon
  AChE inhibition (in words), human blood: did not show inhibition

## Cc1nc(N(C)C)nc(OC(=O)N(C)C)c1C [PI, pirimicarb]
[1]; ref Hoffmann et al. ([2008])
  In vivo concentration: ≤ 300 µM
[2]; 30 min exposure, room temperature
  IC20: 9.9 µM
[2]; 30 min exposure, room temperature, 3–4 independent experiments, read-out: IC50 Electric eel
  IC50: 61 µM
[2]
  AChE inhibition (in words), electric eel: show inhibition of AChE
Human blood AChE; [5]
  IC50: 20 µM
Human blood AChE; IC50 Value, donor 1
  IC50: 19 µM
Human blood AChE; IC50 Value, donor 2
  IC50: 19 µM
Human blood AChE; IC50 Value, donor 3
  IC50: 17 µM
Human blood AChE; IC50 Value, donor 4
  IC50: 22 µM
Human blood AChE; IC50 Value, donor 5
  IC50: 17 µM
Human blood AChE; IC50 Value, donor 6
  IC50: 24 µM
Human blood AChE; IC50 Value, donor 7
  IC50: 23 µM
Human blood AChE; IC50 Value, donor 8
  IC50: 26 µM
Human blood AChE; IC50 Value, donor 9
  IC50: 15 µM
Human blood AChE; IC50 Value, donor 11
  IC50: 29 µM
Human blood AChE; IC50 Value, donor 12
  IC50: 18 µM
Human blood AChE; IC50 Value, donor 13
  IC50: 19 µM
Human blood AChE; IC50 Value, donor 14
  IC50: 15 µM
Human blood AChE; IC50 Value, donor 15
  IC50: 16 µM
Human blood AChE; IC50 Value, donor 16
  IC50: 14 µM
Human blood AChE; IC50 Value, donor 17
  IC50: 16 µM
Human blood AChE; IC50 Value, donor 18
  IC50: 22 µM
Human blood AChE; IC50 Value, donor 19
  IC50: 28 µM
Human blood AChE; IC50 Value, donor 20
  IC50: 19 µM
Human blood AChE
  AChE inhibition (in words), human blood: show inhibition of AChE
Human blood AChE; human variability in AChE inhibition, concentration level C1 (Table S2)
  Coefficient of variation (CV) C1 Human: 5.8%
Human blood AChE; human variability in AChE inhibition, concentration level C2 (Table S2)
  Coefficient of variation (CV) C2 Human: 6.0%
Human blood AChE; human variability in AChE inhibition, concentration level C3 (Table S2)
  Coefficient of variation (CV) C3 Human: 6.9%
Human blood AChE; human variability in AChE inhibition, concentration level C4 (Table S2)
  Coefficient of variation (CV) C4 Human: 5.7%
Human blood AChE; human variability in AChE inhibition, concentration level C5 (Table S2)
  Coefficient of variation (CV) C5 Human: 5.8%
Human blood AChE; human variability in AChE inhibition, highest concentration C6 (Table S2)
  Coefficient of variation (CV) C6 Human: 6.6%
Human blood AChE; interindividual differences, concentration closest to the IC20, 95% CI in brackets
  Human uncertainty factor (UF) UF97.5: 1.8 [1.5–2.1]
Human blood AChE; read-out: IC20 Human, whole blood, average of 20 donors
  IC20: 7.1 µM
Human blood AChE; read-out: IC20 Value, donor 1
  IC20: 8.6 µM
Human blood AChE; read-out: IC20 Value, donor 2
  IC20: 6.4 µM
Human blood AChE; read-out: IC20 Value, donor 3
  IC20: 5.8 µM
Human blood AChE; read-out: IC20 Value, donor 4
  IC20: 8 µM
Human blood AChE; read-out: IC20 Value, donor 5
  IC20: 5.9 µM
Human blood AChE; read-out: IC20 Value, donor 6
  IC20: 9.3 µM
Human blood AChE; read-out: IC20 Value, donor 7
  IC20: 6.4 µM
Human blood AChE; read-out: IC20 Value, donor 8
  IC20: 8.1 µM
Human blood AChE; read-out: IC20 Value, donor 9
  IC20: 4.2 µM
Human blood AChE; read-out: IC20 Value, donor 10
  IC20: 5.3 µM
Human blood AChE; read-out: IC20 Value, donor 11
  IC20: 7 µM
Human blood AChE; read-out: IC20 Value, donor 12
  IC20: 8.8 µM
Human blood AChE; read-out: IC20 Value, donor 13
  IC20: 4.7 µM
Human blood AChE; read-out: IC20 Value, donor 14
  IC20: 6.1 µM
Human blood AChE; read-out: IC20 Value, donor 15
  IC20: 6 µM
Human blood AChE; read-out: IC20 Value, donor 16
  IC20: 5.9 µM
Human blood AChE; read-out: IC20 Value, donor 17
  IC20: 4.8 µM
Human blood AChE; read-out: IC20 Value, donor 18
  IC20: 9.2 µM
Human blood AChE; read-out: IC20 Value, donor 19
  IC20: 18 µM
Human blood AChE; read-out: IC20 Value, donor 20
  IC20: 3.4 µM

## COP(=S)(OC)SCN1C(=O)c2ccccc2C1=O [PM, phosmet]
[1]; ref Santori et al. ([2020])
  In vivo concentration: ≤ 50 µM
[2]
  IC50: > 1.4 µM
  AChE inhibition (in words), electric eel: do not show any AChE inhibition; also recorded: did not inhibit AChE
[2]; listed as phosmet
  AChE inhibition (in words), electric eel: did not show inhibition
[3]
  IC50 Value Human: Inactive
Human blood AChE; [5]
  IC50: > 30 µM
Human blood AChE
  AChE inhibition (in words), human blood: do not inhibit AChE activity; also recorded: do not show any AChE inhibition; also recorded: did not inhibit AChE
Human blood AChE; listed as phosmet
  AChE inhibition (in words), human blood: did not show inhibition

## CCOP(=S)(OCC)Oc1nc(Cl)c(Cl)cc1Cl [CPF, Chlorpyrifos]
[1]; ref Buratti et al. ([2003])
  In vivo concentration: ≤ 10 µM
[1]; ref Eyer et al. ([2009])
  In vivo concentration: ≤ 5 µM
[1]; ref Huen et al. ([2012])
  In vivo concentration: ≤ 5 µM
Electric eel AChE; ref Assis et al. ([2012])
  IC50: 0.03 µM
Electric eel AChE; ref Čolović et al. ([2011])
  IC50: 4.5 µM
[4]
  IC50: 200 µM
[2]
  IC50: > 0.35 µM
  AChE inhibition (in words), electric eel: do not show any AChE inhibition; also recorded: did not inhibit AChE
[2]; listed as chlorpyrifos
  AChE inhibition (in words), electric eel: did not show inhibition
Human AChE (blood)
  IC50: 0.12 µM
Human blood AChE; [5]
  IC50: > 10 µM
Human blood AChE
  AChE inhibition (in words), human blood: do not inhibit AChE activity; also recorded: do not show any AChE inhibition; also recorded: did not inhibit AChE
Human blood AChE; listed as chlorpyrifos
  AChE inhibition (in words), human blood: did not show inhibition

From article PMC7655571, “Acetylcholinesterase inhibition in electric eel and human donor blood: an in vitro approach to investigate interspecies differences and human variability in toxicodynamics” (Archives of Toxicology, 2020)
